From ChEMBL document CHEMBL4346720, “Review of the molecular mechanisms of Ganoderma lucidum triterpenoids: Ganoderic acids A, C2, D, F, DM, X and Y” (Eur J Med Chem, 2019)
Values after ≈ are worked out from the molar mass of the structure shown.

Key:
[1] = target: T1, DNA topoisomerase 1 (Homo sapiens, UniProt P11387); assay: Inhibition of recombinant human topoisomerase-1-mediated relaxation of supercoiled pRYG DNA after 30 mins by ethidium bromide staining based assay
T1 sequence (P11387 whole entry): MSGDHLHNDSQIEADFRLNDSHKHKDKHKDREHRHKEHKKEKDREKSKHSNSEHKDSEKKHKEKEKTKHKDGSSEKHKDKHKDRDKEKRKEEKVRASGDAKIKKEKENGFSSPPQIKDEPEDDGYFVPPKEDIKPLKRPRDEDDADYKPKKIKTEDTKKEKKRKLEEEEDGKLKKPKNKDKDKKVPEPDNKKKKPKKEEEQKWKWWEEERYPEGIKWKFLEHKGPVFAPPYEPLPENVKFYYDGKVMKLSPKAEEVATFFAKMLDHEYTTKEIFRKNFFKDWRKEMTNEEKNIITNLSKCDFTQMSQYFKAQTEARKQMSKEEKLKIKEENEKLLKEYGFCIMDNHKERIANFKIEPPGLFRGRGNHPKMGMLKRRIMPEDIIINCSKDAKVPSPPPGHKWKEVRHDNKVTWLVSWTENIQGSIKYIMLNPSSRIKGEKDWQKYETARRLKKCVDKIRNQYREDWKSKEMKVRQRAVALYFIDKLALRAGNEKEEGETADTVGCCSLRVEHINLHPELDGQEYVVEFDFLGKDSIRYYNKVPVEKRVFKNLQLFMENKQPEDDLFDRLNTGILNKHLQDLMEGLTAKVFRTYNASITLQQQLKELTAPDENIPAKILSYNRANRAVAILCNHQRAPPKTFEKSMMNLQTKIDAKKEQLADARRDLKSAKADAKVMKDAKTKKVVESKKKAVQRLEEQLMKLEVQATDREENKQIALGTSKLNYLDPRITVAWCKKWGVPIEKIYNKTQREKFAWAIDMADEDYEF

[2] = tested on: RAW264.7; assay: Cytotoxicity against mouse RAW264.7 cells assessed as reduction in cell viability by WST-1 assay; type: functional
[3] = Inhibition of RANKL/tumour necrosis factor alpha-induced formation of osteoclasts (unknown origin) by tartrate-resistant acid phosphatase staining based assay; type: functional
[4] = tested on: HeLa; assay: Induction of apoptosis in human HeLa cells; type: functional, cell-based
[5] = tested on: HepG2; assay: Cytotoxicity against human HepG2 cells assessed as reduction in cell viability after 24 hrs by MTT assay; type: functional; conditions: HepG2, 24 h
[6] = target: Signal transducer and activator of transcription 3 (Homo sapiens) (UniProt P40763); assay: Inhibition of IL-6-stimulated STAT3 (unknown origin) phosphorylation preincubated for 4 hrs followed by IL-6 addition measured after 24 hrs by luciferase reporter gene assay
[7] = Tmax in Sprague-Dawley rat at 300 mg/kg, po by LC-ESI-IT-TOF/MS analysis; type: ADME, organism-based; conditions: in vivo
[8] = tested on: Osteoclast; assay: Inhibition of calcitriol-induced formation of Sprague-Dawley rat osteoclasts by […]; type: functional
[9] = Inhibition of human T9A4 cells assessed as reduction in cholesterol synthesis after 30 mins in presence of [14C]acetate, [14C]mevanolate, 24,25-dihydro-[24,25-3H2]lanosterol, [3-3H]lathosterol by acetate incorporation assay; type: functional

Signal transducer and activator of transcription 3 (Homo sapiens), sequence (P40763 whole entry): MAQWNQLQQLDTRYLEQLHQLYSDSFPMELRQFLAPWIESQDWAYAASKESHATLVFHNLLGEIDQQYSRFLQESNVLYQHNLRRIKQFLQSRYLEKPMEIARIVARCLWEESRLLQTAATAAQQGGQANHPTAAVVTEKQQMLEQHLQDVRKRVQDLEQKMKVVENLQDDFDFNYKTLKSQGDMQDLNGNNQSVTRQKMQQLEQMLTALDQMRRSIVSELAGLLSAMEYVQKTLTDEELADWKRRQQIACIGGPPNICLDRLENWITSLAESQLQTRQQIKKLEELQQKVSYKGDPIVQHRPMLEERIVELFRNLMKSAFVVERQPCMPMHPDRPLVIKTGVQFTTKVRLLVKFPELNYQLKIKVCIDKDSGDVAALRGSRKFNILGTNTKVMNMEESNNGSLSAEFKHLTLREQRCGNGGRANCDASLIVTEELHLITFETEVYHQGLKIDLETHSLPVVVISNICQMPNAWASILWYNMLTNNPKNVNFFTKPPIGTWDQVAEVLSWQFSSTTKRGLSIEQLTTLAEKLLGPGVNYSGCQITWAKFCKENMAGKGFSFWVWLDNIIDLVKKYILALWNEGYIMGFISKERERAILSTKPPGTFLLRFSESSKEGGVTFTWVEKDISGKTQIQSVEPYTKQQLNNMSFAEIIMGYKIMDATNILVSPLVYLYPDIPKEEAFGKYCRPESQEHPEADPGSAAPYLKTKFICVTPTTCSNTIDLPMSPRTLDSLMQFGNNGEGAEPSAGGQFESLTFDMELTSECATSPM

SMILES: CC(=O)O[C@H]1C[C@H]([C@H](C)CC/C=C(\C)C(=O)O)[C@@]2(C)CC=C3C(=CC[C@H]4C(C)(C)[C@H](O)CC[C@]34C)[C@]12C
- IC50 [1]: 25 µM

SMILES: C[C@H](CC(=O)C[C@H](C)C(=O)O)[C@H]1CC(=O)[C@@]2(C)C3=C(C(=O)C[C@]12C)[C@@]1(C)CCC(=O)C(C)(C)[C@@H]1C[C@@H]3O
- CC50 [2]: > 400 µM
- IC50 [3]: 400 µM
- IC50 [4]: 17.3 µM

SMILES: C[C@H](CC(=O)C[C@@H](C)[C@H]1C[C@H](O)[C@@]2(C)C3=C(C(=O)C[C@]12C)[C@@]1(C)CCC(=O)C(C)(C)[C@@H]1C[C@@H]3O)C(=O)O [GANODERIC ACID A]
- CC50 [5]: 80 µM
- MIC [6]: 60 µM (≈ 31 µg/mL)

SMILES: C[C@H](CC(=O)C[C@@H](C)[C@H]1C[C@H](O)[C@@]2(C)C3=C(C(=O)C[C@]12C)[C@@]1(C)CC[C@H](O)C(C)(C)[C@@H]1C[C@@H]3O)C(=O)O [GANODERIC ACID C2]
- Tmax [7]: 3.9 min

SMILES: C/C(=C/CC[C@@H](C)[C@H]1CC[C@@]2(C)C3=C(CC[C@]12C)[C@@]1(C)CCC(=O)C(C)(C)[C@@H]1CC3=O)C(=O)O [GANODERIC ACID DM]
- CC50 [2]: 65 µM
- IC50 [3]: 30 µM
- MIC [8]: 10 µg/mL (≈ 21.3 µM)

SMILES: C/C(=C\CC[C@@H](C)[C@H]1CC[C@@]2(C)C3=CC[C@H]4C(C)(C)[C@@H](O)CC[C@]4(C)C3=CC[C@]12C)C(=O)O [GANODERIC ACID Y]
- IC50 [9]: 1.4 µM
